Experimental findings from patent US12383548B2, “Antibacterial quinolines” (priority 2019, dated 2025) are described below.

pIC50: −log10 of the molar value. ≈ marks a conversion by molar mass, not a printed value. Where a name gives a salt, the structure may show the parent alone. Read-outs that look alike come from different tables or passages of the source. Some results are limits rather than exact numbers.

The subject of assay [1] is susceptible H37Rv M. tuberculosis, strain ATCC 25618. The assay can be described thus: Mycobacterium tuberculosis susceptibility assay REMA (resazurin microtiter assay). Format: cell-based. The note with it: for MIC: Mycobacterium tuberculosis, 144 h, read-out: REMA MIC. Also noted: REMA MIC: unit not given here.
In the next assay the test system is HepG2 cell line. The assay can be described thus: in vitro cytotoxicity assay (MTS tetrazolium reduction, cell viability). It counts as cell-based. The note with it: Homo sapiens, HepG2, 48 h. The method, then: In an embodiment, the in vitro cytotoxicity assay was carried out as follows. […] The assay was performed in 96 well plates for 48 h at 37° C. and 5% CO2 in incubation medium (low glucose DMEM with Glutamax, 10% FBS, 1% Pen/Strep and DMSO). Cells were exposed to 8 different compound concentrations in successive dilutions (usually, base 2), plus a positive control (a compound in a concentration known to decrease cell viability above 50%) and a negative control (incubation medium). Six replicate wells were assayed for each condition. Compound stock solutions were prepared in DMSO at 20 mM, whenever possible, filter sterilized, aliquoted and stored at −20° C. The maximum compound concentrations tested depend on its solubility in incubation medium, and on the maximum DMSO percentage allowable without loss of cell viability. At the end of the incubation period, tetrazolium reagent was added (CellTiter 96® AQueous Solution from Promega); cells were incubated for another 3 hours in order to promote tetrazolium reduction to formazan by viable cells. The amount of soluble formazan produced was evaluated by 490 nm absorbance reading in a spectrophotometer plate reader.

Setting [2] is: Table 1, MTB growth, H37Rv, 6 days at 37° C., Middlebrook 7H9.
Setting [3] is: Table 2, MTB growth, H37Rv, 6 days at 37° C., Middlebrook 7H9.
[4] abbreviates: Table 1, cytotoxicity, MTS, read-out: IC50.

For orientation: MIC means the least concentration at which growth counts as inhibited. `O=C(O)C1CCN(c2ccc3cc(-c4ccc(OC(F)(F)F)cc4)ccc3n2)CC1` [Compound 2, 1-(6-(4-(Trifluoromethoxy)phenyl)quinolin-2-yl)piperidine-4-carboxylic acid]: the MIC in assay [1] (setting [2]) and in assay [1] (setting [3]) was under 7.8 µM each time.
One may read the pIC50 as the IC50 on a negative log10 scale, so that one unit is a factor of ten. Regarding `CCOC(=O)C1CCN(c2ccc3cc(-c4ccc(O)cc4)ccc3n2)CC1` [Compound 3, Ethyl 1-(6-(4-hydroxyphenyl)quinolin-2-yl)piperidine-4-carboxylate], the MIC in assay [1] (setting [2]) fell in the range of 7.8 to 15.6 µM (≈ 2.94 to 5.87 µg/mL). In the assay with HepG2 cell line (setting [4]), the negative-log IC50 (pIC50) is under 4.00.
In the case of `CCOC(=O)C1CCN(c2ccc3cc(-c4cnc(OC)nc4)ccc3n2)CC1` [Compound 4, ethyl 1-(6-(2-methoxypyrimidin-5-yl)quinolin-2-yl)piperidine-4-carboxylate], the MIC in assay [1] (setting [2]) and in assay [1] (setting [3]) was under 7.8 µM each time. Besides, the pIC50 was under 4.00 with HepG2 cell line (setting [4]) and under 4.00 in the assay on HepG2 cell line (Table 2, cytotoxicity, MTS, read-out: IC50).
For the compound `CCOC(=O)C1CCN(c2ccc3cc(-c4cccc(F)c4)ccc3n2)CC1` [Compound 8, ethyl 1-(6-(3-fluorophenyl)quinolin-2-yl)piperidine-4-carboxylate], the MIC in assay [1] (setting [2]) and in assay [1] (setting [3]) was under 7.8 µM each time.
Take `CC(C)Oc1ccc(-c2ccc3nc(N4CCC(C(=O)O)CC4)ccc3c2)cc1F` [Compound 10, 1-(6-(3-fluoro-4-isopropoxyphenyl)quinolin-2-yl)piperidine-4-carboxylic acid]: the MIC in assay [1] (setting [2]) and in assay [1] (setting [3]) was under 7.8 µM in each case.
For the compound `O=C(O)C1CCN(c2ccc3cc(-c4cccc(F)c4)ccc3n2)CC1` [Compound 11, 1-(6-(3-fluorophenyl)quinolin-2-yl)piperidine-4-carboxylic acid], the MIC in assay [1] (setting [2]) and in assay [1] (setting [3]) was under 7.8 µM each time.
For the compound `CCOC(=O)C1CCN(c2ccc3cc(-c4ccc(OC)nc4)ccc3n2)CC1` [Compound 14, ethyl 1-(6-(6-methoxypyridin-3-yl)quinolin-2-yl)piperidine-4-carboxylate], the MIC in assay [1] (setting [2]) and in assay [1] (setting [3]) was under 7.8 µM each time.
For the compound `CCOC(=O)C1CCN(c2ccc3cc(-c4ccncc4)ccc3n2)CC1` [Compound 15, ethyl 1-(6-(pyridin-4-yl)quinolin-2-yl)piperidine-4-carboxylate hydrochloride], in assay [1], the MIC was in the range of 7.8 to 15.6 µM. In the assay on HepG2 cell line, this compound gave a pIC50 of under 4.00.
As to `CCOC(=O)C1CCN(c2ccc3cc(-c4ccco4)ccc3n2)CC1` [Compound 16, ethyl 1-(6-(furan-2-yl)quinolin-2-yl)piperidine-4-carboxylate], in assay [1] (setting [2]), the MIC lay within 7.8 to 15.6 µM (≈ 2.73 to 5.47 µg/mL). The pIC50 in the assay with HepG2 cell line (setting [4]) was under 4.00.
In the case of `O=C(O)C1CCN(c2ccc3cc(-c4ccncc4)ccc3n2)CC1` [Compound 18, 1-(6-(pyridin-4-yl)quinolin-2-yl)piperidine-4-carboxylic acid hydrochloride], in assay [1], the MIC lay within 7.8 to 15.6 µM.
For the compound `CCOC(=O)C1CCN(c2ccc3cc(-c4ccc(OC)cc4Cl)ccc3n2)CC1` [Compound 19, ethyl 1-(6-(2-chloro-4-methoxyphenyl)quinolin-2-yl)piperidine-4-carboxylate], the MIC in assay [1] (setting [2]) and in assay [1] (setting [3]) was under 7.8 µM throughout.
In the case of `CCOC(=O)C1CCN(c2ccc3cc(-c4ccc(OC)cc4)ccc3n2)CC1` [Compound 20, ethyl 1-(6-(4-methoxyphenyl)quinolin-2-yl)piperidine-4-carboxylate], the MIC in assay [1] lay within 7.8 to 15.6 µM (≈ 3.05 to 6.09 µg/mL). The compound also had a pIC50 with HepG2 cell line of under 4.00.
`COc1ccc(-c2ccc3nc(N4CCC(C(=O)O)CC4)ccc3c2)cc1` [Compound 21, 1-(6-(4-methoxyphenyl)quinolin-2-yl)piperidine-4-carboxylic acid]: the MIC in assay [1] (setting [2]) and in assay [1] (setting [3]) was under 7.8 µM each time.
For the compound `COc1cccc(-c2ccc3nc(N4CCC(C(=O)O)CC4)ccc3c2)c1` [Compound 22, 1-(6-(3-methoxyphenyl)quinolin-2-yl)piperidine-4-carboxylic acid], in assay [1] (setting [2]), the MIC lay in the range of 7.8 to 15.6 µM (≈ 2.83 to 5.65 µg/mL). For the same compound, the pIC50 in the assay with HepG2 cell line (setting [4]) is under 4.00.
Regarding `COc1ccc(-c2ccc3nc(N4CCC(C(=O)O)CC4)ccc3c2)c(Cl)c1` [Compound 23, 1-(6-(2-chloro-4-methoxyphenyl)quinolin-2-yl)piperidine-4-carboxylic acid], in assay [1] (setting [2]), the MIC was in the range of 7.8 to 15.6 µM (≈ 3.1 to 6.19 µg/mL).
As for `CCOC(=O)C1CCN(c2ccc3cc(-c4ccc(OC)cc4C(F)(F)F)ccc3n2)CC1` [Compound 24, ethyl 1-(6-(4-methoxy-2-(trifluoromethyl)phenyl)quinolin-2-yl)piperidine-4-carboxylate hydrochloride], the MIC in assay [1] was under 7.8 µM. Also, the “REMA MIC” value in assay [1] (setting [3]) is “++++ (<7.8)”.
As to `CCOC(=O)C1CCN(c2ccc3cc(-c4cccc(OC(F)(F)F)c4)ccc3n2)CC1` [Compound 25, ethyl 1-(6-(3-(trifluoromethoxy)phenyl)quinolin-2-yl)piperidine-4-carboxylate], the MIC in assay [1] (setting [2]) and in assay [1] (setting [3]) was under 7.8 µM throughout.
On to `O=C(O)C1CCN(c2ccc3cc(-c4cccc(OC(F)(F)F)c4)ccc3n2)CC1` [Compound 29, 1-(6-(3-(trifluoromethoxy)phenyl)quinolin-2-yl)piperidine-4-carboxylic acid], for which the MIC in assay [1] (setting [2]) and in assay [1] (setting [3]) was under 7.8 µM in each case.
`CCOC(=O)C1CCN(c2ccc3cc(-c4cccc(OC)c4)ccc3n2)CC1` [Compound 30, ethyl 1-(6-(3-methoxyphenyl)quinolin-2-yl)piperidine-4-carboxylate]: the MIC in assay [1] (setting [2]) was 7.8 to 15.6 µM (≈ 3.05 to 6.09 µg/mL). Besides, the pIC50 in the assay on HepG2 cell line (setting [4]) is under 4.00.
The corresponding values for `CCOC(=O)C1CCN(c2ccc3cc(-c4ccc(F)nc4)ccc3n2)CC1` [Compound 35, ethyl 1-(6-(6-fluoropyridin-3-yl)quinolin-2-yl)piperidine-4-carboxylate] are 7.8 to 15.6 µM (≈ 2.96 to 5.92 µg/mL) and under 4.00.
On to `CCOC(=O)C1CCN(c2ccc3cc(-c4ccc(C)nc4)ccc3n2)CC1` [Compound 50, ethyl 1-(6-(6-methylpyridin-3-yl)quinolin-2-yl)piperidine-4-carboxylate], for which the MIC in assay [1] (setting [2]) and in assay [1] (setting [3]) was under 7.8 µM each time.
With `CCOC(=O)C1CCN(c2ccc3cc(-c4ccccn4)ccc3n2)CC1` [Compound 55, ethyl 1-(6-(pyridin-2-yl)quinolin-2-yl)piperidine-4-carboxylate], the MIC in assay [1] (setting [2]) and in assay [1] (setting [3]) was under 7.8 µM each time.
Take `CCOC(=O)C1CCN(c2ccc3cc(-c4ccc(OC)c(F)c4)ccc3n2)CC1` [Compound 58, ethyl 1-(6-(3-fluoro-4-methoxyphenyl)quinolin-2-yl)piperidine-4-carboxylate]: the MIC in assay [1] (setting [2]) and in assay [1] (setting [3]) was under 7.8 µM in each case.
As to `CCOC(=O)C1CCN(c2ccc3cc(-c4ccc(Cl)c(F)c4)ccc3n2)CC1` [Compound 63, ethyl 1-(6-(4-chloro-3-fluorophenyl)quinolin-2-yl)piperidine-4-carboxylate], the MIC in assay [1] (setting [2]) and in assay [1] (setting [3]) was under 7.8 µM in each case.
Turning to `CCOC(=O)C1CCN(c2ccc3cc(-c4cccc(Cl)c4)ccc3n2)CC1` [Compound 64, ethyl 1-(6-(3-chlorophenyl)quinolin-2-yl)piperidine-4-carboxylate], the MIC in assay [1] (setting [2]) is 7.8 to 15.6 µM (≈ 3.08 to 6.16 µg/mL).
In the case of `CCOC(=O)C1CCN(c2ccc3cc(-c4ccncc4)ccc3n2)C1` (stereo not shown) [Compound 67, ethyl 1-(6-(pyridin-4-yl)quinolin-2-yl)pyrrolidine-3-carboxylate], the MIC in assay [1] (setting [2]) was in the range of 7.8 to 15.6 µM (≈ 2.71 to 5.42 µg/mL).
For the compound `CCOC(=O)C1CCN(c2ccc3cc(-c4cc5ccccc5s4)ccc3n2)CC1` [Compound 68, ethyl 1-(6-(benzo[b]thiophen-2-yl)quinolin-2-yl)piperidine-4-carboxylate], in assay [1] (setting [2]), the MIC is 7.8 to 15.6 µM (≈ 3.25 to 6.5 µg/mL).
For the compound `CCOC(=O)C1CCN(c2ccc3cc(-c4ccccc4C(F)(F)F)ccc3n2)CC1` [Compound 69, ethyl 1-(6-(2-(trifluoromethyl)phenyl)quinolin-2-yl)piperidine-4-carboxylate], the MIC in assay [1] (setting [2]) and in assay [1] (setting [3]) was under 7.8 µM in each case.
Take `CCOC(=O)C1CCN(c2ccc3cc(-c4ccccc4OC(F)(F)F)ccc3n2)CC1` [Compound 70, ethyl 1-(6-(2-(trifluoromethoxy)phenyl)quinolin-2-yl)piperidine-4-carboxylate]: the MIC in assay [1] (setting [2]) was under 7.8 µM.
Regarding `CCOC(=O)C1CCN(c2ccc3cc(-c4ccc(F)cc4OC)ccc3n2)CC1` [Compound 71, ethyl 1-(6-(4-fluoro-2-methoxyphenyl)quinolin-2-yl)piperidine-4-carboxylate], the MIC in assay [1] (setting [3]) is under 7.8 µM.
Consider `CCOC(=O)C1CCN(c2ccc3cc(-c4ccc(OC)c(C(F)(F)F)c4)ccc3n2)CC1` [Compound 72, ethyl 1-(6-(4-methoxy-3-(trifluoromethyl)phenyl)quinolin-2-yl)piperidine-4-carboxylate], for which the MIC in assay [1] (setting [2]) was in the range of 7.8 to 15.6 µM (≈ 3.58 to 7.15 µg/mL).
On to `CCOC(=O)C1CCN(c2ccc3cc(-c4cccc(F)c4)ccc3n2)CC1` [Compound 74, ethyl 1-(6-(3-fluorophenyl)quinolin-2-yl)piperidine-4-carboxylate], for which the “REMA MIC” value in assay [1] (setting [2]) is on record as “+++ (7.8-15.6)”.
Take `CCOC(=O)C1CCN(c2ccc3cc(-c4ccc(F)c(Cl)c4)ccc3n2)CC1` [Compound 75, ethyl 1-(6-(3-chloro-4-fluorophenyl)quinolin-2-yl)piperidine-4-carboxylate]: the MIC in assay [1] (setting [2]) lay within 7.8 to 15.6 µM (≈ 3.22 to 6.44 µg/mL).
